Measured values: US10208089B2, “Modulation of complement activity” (priority 2014, dated 2019)
Entries after “also recorded” stand apart in the source; their conditions may differ. Where two headings read alike, the source gives them in different places. Starred links: 1 amine or outer side, 2 acyl side, 3 side chain; linkers in the order of their positions; H or OH if unused. Positions of bridges follow the written chain, without caps; N, C: chain ends. Non-standard residues stand in square brackets, D forms with d. Residues, ends and D or L forms follow the SMILES beside them. Trp(7-aza) = N[C@@H](Cc1c[nH]c2ncccc12)C(=O)O; mXylylene = c1cc(C[*:1])cc(C[*:2])c1; pXylylene = c1cc(C[*:2])ccc1C[*:1]; Phg = N[C@H](C(=O)O)c1ccccc1; Tle = CC(C)(C)[C@H](N)C(=O)O; NMeS = CN[C@@H](CO)C(=O)O; Pra = C#CC[C@H](N)C(=O)O; Nva = CCC[C@H](N)C(=O)O; Aib = CC(C)(N)C(=O)O

Legend:
[1] = target: T1, C5 (Homo sapiens, UniProt P01031); experiment: Human hemolysis assay (RBC lysis assay using complete human sera); assay type: cell-based; parameters: with complete human sera (Complement Technology, Tyler Tex.) and polypeptides; tissue Complement Technology, Tyler Tex; host or cells: complete human serum; details: inhibition of lysis of antibody-sensitized sheep erythrocytes, complete human sera
[2] = target: T1, C5; experiment: Competitive fluorescence polarization assay with probe R3076; assay type: binding; parameters: purchased Complement Technology, Tyler, Tex
Experimental: FP allows binding events to be measured in a homogenous solution.
Polarization was measured over time, until binding reached equilibrium. KD was determined using Graphpad Prism (using “Saturating Binding Curves, One Site—Specific Binding With Hill Slope” as the curve fit to determine KD).
10 μl of this working stock was then added to each well in the assay plate. The assay plate was incubated at room temperature, protected from light, for 20 minutes to allow binding to reach equilibrium.
Test articles listed in Table 7 were subsequently diluted in DMSO then assay buffer, comprising 10 2-fold dilutions and were then added to the assay plate in triplicate, rapidly. The assay plate was then incubated in the Paradigm (Molecular Devices, Sunnyvale, Calif.) plate reader for 60 minutes at 25° C.
After incubation for 60 minutes, the plate was read using the Paradigm FP protocol (Molecular Devices, Sunnyvale, Calif.) and raw polarization values were imported into Graphpad Prism.

[3] = Compound stability in human plasma; assay type: in vitro ADME
Experimental: Compounds were assayed for stability in human plasma under the following conditions. Human plasma was obtained from Bioreclamation (Westbury, N.Y.) and collected in sodium heparin. Plasma was adjusted to pH 7.4. DMSO stocks at 10 mM concentration were prepared for the test compounds. Aliquots of the DMSO solutions were dosed into 1 mL of plasma, which had been pre-warmed to 37° C., at a final test compound concentration of 10 μM. The vials were kept in a benchtop THERMOMIXER® (Eppendorf, Hauppauge, N.Y.) for the duration of the experiment. Aliquots (100 μL) were taken at each timepoint and added to a 96-well plate that had been pre-filled with 300 μL of an acetonitrile solution containing mixture of the internal standards (metoprolol, propranolol and warfarin each at 500 ng/mL). […] Aliquots of the supernatant were removed and analyzed by LC-HRAMS.

[4] = average of Exp 1 and Exp 2, read-out: Avg, nM IC50
[5] = average of Exp 1 and Exp 2, read-out: Avg, nM Ki
[6] = competition with probe R3076 25 nM, C5 50 nM, 60 min at 25° C., experiment 1, read-out: IC50 nM, Exp 1
[7] = competition with probe R3076 25 nM, C5 50 nM, 60 min at 25° C., experiment 1, read-out: Ki nM, Exp 1
[8] = competition with probe R3076 25 nM, C5 50 nM, 60 min at 25° C., experiment 2, read-out: IC50 nM, Exp 2
[9] = competition with probe R3076 25 nM, C5 50 nM, 60 min at 25° C., experiment 2, read-out: Ki nM, Exp 2

T1 sequence (P01031 19-1676): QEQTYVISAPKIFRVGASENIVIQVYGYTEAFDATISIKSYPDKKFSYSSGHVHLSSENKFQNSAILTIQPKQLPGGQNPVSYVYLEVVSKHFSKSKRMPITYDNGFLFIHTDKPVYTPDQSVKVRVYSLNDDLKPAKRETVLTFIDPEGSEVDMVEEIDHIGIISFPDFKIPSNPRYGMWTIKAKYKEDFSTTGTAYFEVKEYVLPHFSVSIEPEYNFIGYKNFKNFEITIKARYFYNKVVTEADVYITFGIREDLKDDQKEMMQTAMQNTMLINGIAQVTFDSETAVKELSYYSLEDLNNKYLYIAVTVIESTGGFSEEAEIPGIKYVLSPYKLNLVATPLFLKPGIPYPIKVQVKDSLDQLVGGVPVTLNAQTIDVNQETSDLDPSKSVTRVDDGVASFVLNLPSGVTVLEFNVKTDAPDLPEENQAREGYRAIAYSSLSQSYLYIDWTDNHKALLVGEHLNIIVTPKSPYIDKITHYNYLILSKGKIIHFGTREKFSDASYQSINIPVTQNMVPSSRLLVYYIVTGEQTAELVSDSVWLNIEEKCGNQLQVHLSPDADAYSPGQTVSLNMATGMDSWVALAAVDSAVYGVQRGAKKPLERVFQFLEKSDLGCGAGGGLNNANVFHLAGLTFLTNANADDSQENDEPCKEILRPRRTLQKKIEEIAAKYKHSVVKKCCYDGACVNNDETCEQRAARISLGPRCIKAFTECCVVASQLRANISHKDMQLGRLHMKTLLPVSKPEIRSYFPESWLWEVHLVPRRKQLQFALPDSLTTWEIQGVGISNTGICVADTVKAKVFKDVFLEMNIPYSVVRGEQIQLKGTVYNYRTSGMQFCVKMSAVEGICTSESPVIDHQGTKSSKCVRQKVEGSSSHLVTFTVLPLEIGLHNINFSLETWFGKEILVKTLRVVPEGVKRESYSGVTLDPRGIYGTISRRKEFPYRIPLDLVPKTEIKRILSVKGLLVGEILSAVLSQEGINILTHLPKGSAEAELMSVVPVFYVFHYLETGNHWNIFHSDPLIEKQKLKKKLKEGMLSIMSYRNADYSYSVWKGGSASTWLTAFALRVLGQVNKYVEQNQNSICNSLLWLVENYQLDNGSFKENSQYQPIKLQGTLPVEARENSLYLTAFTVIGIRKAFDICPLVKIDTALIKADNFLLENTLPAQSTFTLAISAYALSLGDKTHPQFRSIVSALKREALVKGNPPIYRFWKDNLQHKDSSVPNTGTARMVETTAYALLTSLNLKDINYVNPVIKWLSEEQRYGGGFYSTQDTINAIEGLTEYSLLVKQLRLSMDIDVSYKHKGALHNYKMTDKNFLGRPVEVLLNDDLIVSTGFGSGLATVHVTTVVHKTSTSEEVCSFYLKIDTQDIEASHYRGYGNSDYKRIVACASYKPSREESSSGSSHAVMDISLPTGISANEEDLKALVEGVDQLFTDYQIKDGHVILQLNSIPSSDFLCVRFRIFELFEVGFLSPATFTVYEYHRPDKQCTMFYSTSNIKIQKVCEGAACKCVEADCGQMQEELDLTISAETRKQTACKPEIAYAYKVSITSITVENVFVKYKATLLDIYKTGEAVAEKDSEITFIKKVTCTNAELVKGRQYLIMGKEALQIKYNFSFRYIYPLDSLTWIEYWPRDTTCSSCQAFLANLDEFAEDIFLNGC

Structure (SMILES)	IC50 [1] [nM]	IC50 [2, 4] [nM]	Ki [2, 5] [nM]	IC50 [2, 6] [nM]	Ki [2, 7] [nM]	IC50 [2, 8] [nM]	Ki [2, 9] [nM]	competition with labeled probe / affinity for C5 (in words) ([2]; probe R3076 25 nM, C5 50 nM)	Ki ([2]; probe R3076 25 nM, C5 50 nM, read-out: Ki) [nM]	stability in human plasma (in words) ([3]; 37° C., up to 24 hrs)	half-life at 10 μM ([3]; pH 7.4, 37° C., 10 μM) [h]	Percent remaining at time (hrs): 0 hrs ([3]; pH 7.4, 37° C., 10 μM, 0 hrs) [%]	remaining at 2 h, 10 μM ([3]; plasma (collected in sodium heparin), pH 7.4, 37° C., 10 μM, 2 hrs, read-out: Percent remaining at time (hrs): 2 hrs) [%]	remaining at 4 h, 10 μM ([3]; plasma (collected in sodium heparin), pH 7.4, 37° C., 10 μM, 4 hrs, read-out: Percent remaining at time (hrs): 4 hrs) [%]	remaining at 12 h, 10 μM ([3]; plasma (collected in sodium heparin), pH 7.4, 37° C., 10 μM, 12 hrs, read-out: Percent remaining at time (hrs): 12 hrs) [%]	remaining at 24 h, 10 μM ([3]; plasma (collected in sodium heparin), pH 7.4, 37° C., 10 μM, 24 hrs, read-out: Percent remaining at time (hrs): 24 hrs) [%]
CCC[C@H](NC(C)=O)C(=O)N[C@H]1CSCc2cccc(c2)CSC[C@@H](C(=O)N[C@@H](CCC)C(=O)N2CCC[C@H]2C(N)=O)NC(=O)[C@H](Cc2c[nH]cn2)NC(=O)[C@H](CO)N(C)C(=O)[C@H](Cc2ccc(O)cc2)NC(=O)[C@H](CCC(=O)O)NC(=O)[C@H](Cc2c[nH]c3ncccc23)NC(=O)[C@H]([C@@H](C)O)NC(=O)[C@H](c2ccccc2)NC1=O [Compound R3011, [mXylyl(2,10)]Ac-Nvl-C-Phg-T-azaTrp-E-Y-(N-Me)S-H-C-Nvl-P-NH2] (Ac-[Nva]C[Phg]T[Trp(7-aza)]EY[NMeS]HC[Nva]P-NH2; linker 2-10 via mXylylene)	112	278	80	295	73.2	261	86.9	relatively strong affinity								
CCC[C@H](NC(C)=O)C(=O)N[C@@H](CS)C(=O)N[C@@H](Cc1ccc(O)cc1)C(=O)N[C@@H](CCC(=O)O)C(=O)N[C@@H](CC(N)=O)C(=O)N[C@H](C(=O)N[C@@H](Cc1ccc(O)cc1)C(=O)N[C@@H](Cc1c[nH]c2ncccc12)C(=O)N[C@@H](CCC(=O)O)C(=O)N[C@@H](Cc1ccc(O)cc1)C(=O)N1CCC[C@H]1C(=O)N[C@H](C(=O)N1CCC[C@H]1C(N)=O)c1ccccc1)C(C)(C)C [Compound R3003, Ac-Nvl-C-Y-E-N-Tbg-Y-azaTrp-E-Y-P-Phg-P-NH2] (Ac-[Nva]CYEN[Tle]Y[Trp(7-aza)]EYP[Phg]P-NH2)	13.9	68.4		72.7	10.4	64.1	8.69	most potent	9.54							
CCC[C@H](NC(=O)[C@@H]1CSCc2ccc(cc2)CSC[C@H](NC(=O)[C@H](CCC)NC(C)=O)C(=O)N[C@@H](c2ccccc2)C(=O)N[C@@H]([C@@H](C)O)C(=O)N[C@@H](Cc2c[nH]c3ncccc23)C(=O)N[C@@H](CCC(=O)O)C(=O)N[C@@H](Cc2ccc(O)cc2)C(=O)N(C)[C@@H](CO)C(=O)N[C@@H](Cc2c[nH]cn2)C(=O)N1)C(N)=O [Compound R3050, [pXylyl(2,10)]Ac-Nvl-C-Phg-T-azaTrp-E-Y-(N-Me)S-H-C-Nvl-NH2] (Ac-[Nva]C[Phg]T[Trp(7-aza)]EY[NMeS]HC[Nva]-NH2; linker 2-10 via pXylylene)	42.9	280	64.3	267	71.1	293	57.6	relatively strong affinity		highly stable	> 24	100	109	100	88	98.1
CCC[C@H](NC(=O)[C@@H]1CCCN1C(=O)[C@H](CCC)NC(=O)[C@@H]1CSCc2cccc(c2)CSC[C@H](NC(C)=O)C(=O)N[C@@H](c2ccccc2)C(=O)N[C@@H]([C@@H](C)O)C(=O)N[C@@H](Cc2c[nH]c3ncccc23)C(=O)N[C@@H](CCC(=O)O)C(=O)N[C@@H](Cc2ccc(O)cc2)C(=O)N(C)[C@@H](CO)C(=O)N[C@@H](Cc2c[nH]cn2)C(=O)N1)C(N)=O [Compound R3014, [mXylyl(1,9)]Ac-C-Phg-T-azaTrp-E-Y-(N-Me)S-H-C-Nvl-P-Nvl-NH2] (Ac-C[Phg]T[Trp(7-aza)]EY[NMeS]HC[Nva]P[Nva]-NH2; linker 1-9 via mXylylene)	1420	6820	1490	6060	1400	7580	1590	weak affinity								
CCC[C@H](NC(=O)[C@H](Cc1ccc(O)cc1)NC(=O)[C@H](CC(N)=O)NC(=O)[C@H](CCC)NC(=O)[C@H](CCC(=O)O)NC(=O)[C@@H](NC(=O)[C@H](Cc1c[nH]c2ncccc12)NC(=O)[C@@H](NC(=O)[C@H](CS)NC(=O)[C@H](Cc1ccc(O)cc1)NC(=O)[C@@H]1CCCN1C(=O)[C@H](Cc1ccc(O)cc1)NC(C)=O)c1ccccc1)C(C)(C)C)C(=O)N[C@@H](CCC(=O)O)C(N)=O [Compound R3023, Ac-Y-P-Y-C-Phg-azaTrp-Tbg-E-Nvl-N-Y-Nvl-E-NH2] (Ac-YPYC[Phg][Trp(7-aza)][Tle]E[Nva]NY[Nva]E-NH2)	> 100000	> 1000	> 1000	> 1000	> 1000	> 1000	> 1000	no activity at the highest concentration tested; also recorded: not detected at the highest concentration tested; also recorded: no affinity								
CSCC[C@H](N)C(=O)N[C@H]1CSCc2cccc(c2)CSC[C@@H](C(=O)N[C@@H](CC(=O)O)C(=O)N[C@H](C(=O)N[C@@H](Cc2ccc(O)cc2)C(=O)N[C@@H](Cc2c[nH]c3ccccc23)C(=O)N[C@@H](CCC(=O)O)C(N)=O)C(C)C)NC(=O)[C@H](Cc2ccccc2)NC(=O)[C@H](CCCNC(=N)N)NC(=O)[C@H](CCC(=O)O)NC(=O)[C@H](C(C)C)NC1=O [Compound R3043, [mXylyl(2,7)]M-C-V-E-R-F-C-D-V-Y-W-E-NE2] (H-MCVERFCDVYWE-NH2; linker 2-7 via mXylylene)	934	4230	874	4330	866	4120	882	weak affinity								
C#CC[C@H](NC(=O)[C@H](Cc1ccccc1)NC(=O)[C@H](CCC(=O)O)NC(=O)[C@H](Cc1c[nH]c2ccccc12)NC(=O)[C@H](Cc1ccc(O)cc1)NC(=O)[C@@H](NC(=O)[C@H](CC(=O)O)NC(=O)[C@@H]1CSCc2cccc(c2)CSC[C@H](NC(C)=O)C(=O)N[C@@H](C(C)C)C(=O)N[C@@H](CCC(=O)O)C(=O)N[C@@H](CCCNC(=N)N)C(=O)N[C@@H](Cc2ccccc2)C(=O)N1)C(C)C)C(N)=O [Compound R3147, [mXylyl(1,6)]Ac-C-V-E-R-F-C-D-V-Y-W-E-F-Propargyl-Gly-NH2] (Ac-CVERFCDVYWEF[Pra]-NH2; linker 1-6 via mXylylene)	138															
CCC[C@H](NC(=O)[C@@H]1CSCc2cccc(c2)CSC[C@H](NC(=O)[C@H](CCC)NC(C)=O)C(=O)N[C@@H](c2ccccc2)C(=O)NC(C)(C)C(=O)N[C@@H](Cc2c[nH]c3ncccc23)C(=O)N[C@@H](CCC(=O)O)C(=O)N[C@@H](Cc2ccc(O)cc2)C(=O)N(C)[C@@H](CO)C(=O)N[C@@H](Cc2c[nH]cn2)C(=O)N1)C(N)=O [Compound R3096, [mXylyl(2,10)]Ac-Nvl-C-Phg-Aib-azaTrp-E-Y-(N-Me)S-H-C-Nvl-NH2] (Ac-[Nva]C[Phg][Aib][Trp(7-aza)]EY[NMeS]HC[Nva]-NH2; linker 2-10 via mXylylene)	> 50000															
